Assay [1] deals with IL-8. The conditions noted are these: men undergoing ADT with testosterone supplementation vs ADT, FIG. 2h; cited from earlier work.
Assay [2] deals with Cxcl15. Nature of the assay: Cxcl15 expression in benign prostate epithelium of mice (RISH, qRT-PCR). It counts as in vivo, mouse. Conditions: WT mice treated with ADT followed by testosterone repletion, FIG. 2g. The source says: Eight-week-old male HOXB13-GFP mice carrying the Hoxb13-rtTA transgene and a Tetracycline operator—Histone 2B-Green Fluorescent Protein (TetO-H2BGFP), which results on GFP expression being restricted to luminal epithelial Hoxb13^+ cells (described previously), were castrated via bilateral orchiectomy. A cycle of prostate regression/regeneration was induced as described previously. Briefly, mice were allowed to regress for six weeks to reach the fully involuted state. Mice were randomized to ADT or ADT+testosterone (T) treatment groups. Testosterone was administered for four weeks for prostate regeneration by subcutaneous pellets; this regimen yields physiological levels of serum testosterone. All mice received 2 mg/ml of Doxycycline (Sigma) in the drinking water to induce GFP expression under the control of the luminal epithelial promoter, HoxB13, one week prior euthanizing them for their analysis.
Manual fluorescent RNAScope was performed on formalin-fixed and zinc-fixed paraffin embedded sections using company protocols. Briefly, sections were cut at 5 μm, air dried overnight, baked at 60° C. for 1 hrs, dewaxed and air-dried before pre-treatments. RNAScope Cxcl15, 3-plex positive control probes (Polr2a, Ppib, Ubc) and 3-plex negative control probes (DapB of Bacillus subtilis strain) from Advanced Cell Diagnostics (ACD) were used in this study. […]

For assay [3], the system named is Cxcl15. Nature of the assay: Expression analysis of sorted MCRedAL tumor cells pre- and post-ADT. The format is in vivo, mouse. On the procedure:
Eight-week-old male FVB/NJ and J:NU mice were subcutaneously inoculated in the right flank with either Myc-Cap or MCRedAL (1×10^6 cells/mouse), and LNCaP or PC3 (3×10^6 cells/mouse), respectively. Tumor diameters were measured with electronic calipers every 3 days as indicated and the tumor volume was calculated using the formula: [longest diameter×(shortest diameter)^2]/2. Myc-Cap tumor bearing mice received androgen-deprivation therapy (ADT) 4 weeks after tumor implantation when tumor volume reached ˜500 mm^3, as indicated in figure legends. […]
Tumors collected at different treatment time points were minced, lysed in CelLytic MT (Sigma) containing halt protease and phosphatase inhibitor (Thermo Fisher) in a 1:100 ratio, and incubated on ice for 30 minutes with intermittent vortexing. […] IL-8 and Cxcl15 were analyzed by ELISA kits following the manufacturer's instructions (BD Bioscience and R&D Systems, respectively).
MCRedAL tumor were harvested when their tumor volume reached ˜500 mm^3 (CS group), and 7 days after chemical castration (ADT). […] Resulting CEL files were analyzed in Affymetrix Expression Console (v. 1.4) using the SST-RMA method, and all samples passed the quality control. Log2 probe intensities were extracted from CEL (signal intensity) files and normalized using RMA quantile normalization, then further analyzed using Partek Genomics Suite v6.6. […]

The subject of a further assay is Myc-Cap tumors. Nature of the assay: Immune infiltration (PMN-MDSC, TIL, TAM) of Myc-Cap tumors by flow cytometry. It counts as in vivo, mouse. Conditions: Myc-Cap allografts after ADT, FIG. 3b.
In assay [4] the test system is IL-8. The conditions noted are these: high-risk PCa patients treated with ADT (degarelix 240 mg SQ) vs untreated controls, FIG. 2i.
Procedure: Formalin fixed, paraffin embedded (FFPE) human prostate cancer samples were obtained from consented patients treated with ADT (degarelix; 240 mg SQ) in a neo-adjuvant trial (NCT01696877) and matched control radical prostatectomies were obtained from patients treated at the Johns Hopkins Sidney Kimmel Comprehensive Cancer Center (Baltimore, Md.) under IRB-approved clinical protocol J1265. All patients provided written, informed consent. Total RNA was extracted using Trizol (Ambion). cDNA was prepared from total RNA preps using the RNA to cDNA EcoDry Premix (Clontech). Real-time assays were conducted using TaqMan real-time probes (Applied Biosystems). AA CT method was used for relative gene expression. Expression of the target gene was normalized to the reference gene (18S) and the mean expression level of the control group. LCM samples were normalized to 18S, TBP, and GAPDH reference genes. […] Sections were deparaffinized, hydrated and stained with hematoxylin prior to microdissection. Individual cancer cells and cancer cell clusters were microdissected by a trained pathologist using a LMD 7000 laser capture microscope (Leica). RNA was recovered from the microdisseceted material using the RNeasy FFPE kit (Qiagen). Quantitative RT-PCR was performed as described above. For the analysis, a Mann-Whitney U test was performed.
Assay [5] relates to IL-8 (CXCL8) promoter. Conditions: LNCaP cells, cited from earlier work.
Assay [6] concerns IL-8. The experiment in a line: qRT-PCR quantification of IL-8 in LNCaP cells. The format is cell-based, human. The conditions noted are these: LNCaP cells in androgen-free media, FIG. 1f. The protocol:
Myc-Cap, derived from spontaneous prostate cancer in c-Myc transgenic mice, was a generous gift from Dr. C. Sawyers. To generate MCRedAL, Myc-Cap cells were transfected with pRetroQ-mCherry-C1 (Clontech) using lipofectamine 2000 (Invitrogen) and isolated by FACS sorting based on mCherry expression (Extended Data FIG. 1a). Myc-Cap and MCRedAL cells were cultured in DMEM as previously described. LNCaP, VCaP, E006AA, CWR22Rv1, DU145, and PC3 cell lines were obtained and cultured as recommended by the ATCC. LAPC4 (a gift from Dr. S. Yegnasubramanian) were maintained in RPMI-1640 (Corning) supplemented with 10% fetal bovine serum (FBS; Gemini Bio-Products). Androgen independent LNCaP-abl cells were a gift from Dr. Z. Culig and cultured as described previously^29. LAPC4-CR and VCaP-CR (a gift from S. Yegnasubramanian) were derived by passaging LAPC4 and VCaP cells through castrated animals and further subculturing in RPMI-1640 supplemented with 10% charcoal stripped serum (CSS; Gemini Bio-Products) supplemented with 1×B-27 Neuronal Supplement (Gibco). For experiments when cells were grown in androgen-free conditions, 10% FBS was substituted for 10% CSS in complete media. For migration/chemotaxis assays, prostate cancer cell lines were cultured in complete media containing either 0.5% or 2.5% FBS for human and murine cells, respectively. […]

The next assay concerns PSA (KLK3) promoter. Conditions: LNCaP cells, DHT 100 nM, FIG. 1h right.
The test system of assay [7] is IL-8 (CXCL8) promoter. Conditions: LNCaP cells, DHT 100 nM.
Procedure: Chromatin immunoprecipitation was performed. In brief, LNCaP cells were washed with serum-free media and then grown in media containing 10% charcoal stripped FBS for 48 hours. Cells were treated with 100 nM DHT or vehicle for 8 hours. DNA was cross-linked with 1% formaldehyde in PBS for 10 minutes and crosslinking was quenched by addition of 0.125 M glycine. Fixed cells were then lysed in lysis buffer (1% SDS, 5 mM EDTA, 50 mM Tris HCl, pH8.1) and sonicated to a fragment size of 200-600 bp using a Covaris water bath sonicator (Woburn, Mass.). Sheared chromatin was then incubated with primary antibodies (AR [06-680, Millipore], H3K4me3 [ab8580, Abcam], phospho-SerS RNA polymerase 2 [ab5131, Abcam], RNA polymerase 2 [4H8, Cell Signaling Technologies] or control IgG [Cell Signaling Technologies]) overnight at 4° C. Complexes were immobilized on Dynabeads (Thermo Fisher) by incubating for 4 hours at 4° C. Beads were sequentially washed with TSEI (0.1% SDS, 1% Triton X-100, 2 mM EDTA, 20 mM Tris HCl, pH 8.1, 150 mM NaCl), TSEII (0.1% SDS, 1% Triton X-100, 2 mM EDTA, 20 mM Tris HCl, pH 8.1, 500 mM NaCl) and TSEIII (0.25 M LiCl, 1% NP-40, 1% deoxycholate, 1 mM EDTA, 10 mM Tris HCl, pH 8.1). […] Enriched DNA libraries were analyzed using primers specific to IL-8 locus: Forward: 5′ [sequence] […] 3′ (SEQ ID NO: 2) using quantitative (q) RT-PCR. […]

Read-outs that look alike come from different tables or passages of the source.

Data on four compounds can be found in US20220040252A1, “TREATMENT OF PROSTATE CANCER BY ANDROGEN ABLATION AND IL-8 BLOCKADE” (The Trustees of Columbia University in the City of New York, priority 2019, published 2022).

Procedure for Myc-Cap tumors: Eight-week-old male FVB/NJ and J:NU mice were subcutaneously inoculated in the right flank with either Myc-Cap or MCRedAL (1×10^6 cells/mouse), and LNCaP or PC3 (3×10^6 cells/mouse), respectively. Tumor diameters were measured with electronic calipers every 3 days as indicated and the tumor volume was calculated using the formula: [longest diameter×(shortest diameter)^2]/2. Myc-Cap tumor bearing mice received androgen-deprivation therapy (ADT) 4 weeks after tumor implantation when tumor volume reached ˜500 mm^3, as indicated in figure legends. […] Onset of castration-resistance was defined as the time to tumor size increased by 30% (˜650 mm^3) after ADT. Chemical castration by ADT was compared to bilateral orchiectomy as described in FIG. 1a. […]
Single-cell suspensions from prostate tumor and tissues were prepared using the Mouse Tumor Dissociation Kit according to the manufacturer's recommendations (Miltenyi). […] Gates of cytokines were determined by fluorescence minus one (FMO) controls. Staining was visualized by fluorescenceactivated cell sorting (FACS) analysis using a BD FACSCelesta™ (BD Biosciences) and analyzed using FlowJo® (Flowjo LLC). […]
Procedure for PSA (KLK3) promoter: Chromatin immunoprecipitation was performed. In brief, LNCaP cells were washed with serum-free media and then grown in media containing 10% charcoal stripped FBS for 48 hours. Cells were treated with 100 nM DHT or vehicle for 8 hours. […] Fixed cells were then lysed in lysis buffer (1% SDS, 5 mM EDTA, 50 mM Tris HCl, pH8.1) and sonicated to a fragment size of 200-600 bp using a Covaris water bath sonicator (Woburn, Mass.). Sheared chromatin was then incubated with primary antibodies (AR [06-680, Millipore], H3K4me3 [ab8580, Abcam], phospho-SerS RNA polymerase 2 [ab5131, Abcam], RNA polymerase 2 [4H8, Cell Signaling Technologies] or control IgG [Cell Signaling Technologies]) overnight at 4° C. Complexes were immobilized on Dynabeads (Thermo Fisher) by incubating for 4 hours at 4° C. Beads were sequentially washed with TSEI (0.1% SDS, 1% Triton X-100, 2 mM EDTA, 20 mM Tris HCl, pH 8.1, 150 mM NaCl), TSEII (0.1% SDS, 1% Triton X-100, 2 mM EDTA, 20 mM Tris HCl, pH 8.1, 500 mM NaCl) and TSEIII (0.25 M LiCl, 1% NP-40, 1% deoxycholate, 1 mM EDTA, 10 mM Tris HCl, pH 8.1). DNA was eluted with IP Elution buffer (1% SDS, 0.1M NaHCO3, proteinase K) and incubated at 56° C. for 15 minutes. […] Data is shown as relative enrichment normalized to input DNA.

In the case of `C[C@]12CC[C@H]3[C@@H](CCC4=CC(=O)CC[C@@]43C)[C@@H]1CC[C@@H]2O` [testosterone], the “IL-8 mRNA expression” value in the assay on IL-8 [1] is “significantly reduced IL-8 mRNA expression”. Besides, the “epithelial Cxcl15 expression” value with Cxcl15 [2] is listed as “expression significantly decreased by testosterone repletion”.

As to degarelix acetate [ADT], in the assay on Cxcl15 [3] (MCRedAL tumor cells, 7 days after chemical castration vs castration-sensitive, FIG. 1d), the “Cxcl15 transcript (microarray)” value was “significantly up-regulated post-ADT”. Also, the “Cxcl15 (qRT-PCR and ELISA)” value with Cxcl15 [3] (post-ADT, data not shown) is given as “confirmed the upregulation of Cxcl15 post-ADT at the protein level”. In the assay on Myc-Cap tumors, the “T cell influx into tumor” value is “promoted a transient T cell influx” and the “tumor associated macrophage (TAM) populations” value is “without significant changes in tumor associated macrophage (TAM) populations”. Also, the “IL-8 expression (qRT-PCR)” value in the assay with IL-8 [4] is “increased IL-8 expression”.

Consider TNFα, for which the “p65 binding at the IL-8 (CXCL8) promoter (ChIP-Seq, GSE83860)” value in the assay with IL-8 (CXCL8) promoter [5] (TNFα 1000 U/ml, FIG. 1g bottom) is listed as “significantly increased p65 binding”. In addition, the “IL-8 expression (qRT-PCR)” value in the assay with IL-8 [6] is given as “upregulated IL-8 expression in a dose-dependent manner”.

Turning to `C[C@]12CCC(=O)C[C@@H]1CC[C@@H]1[C@@H]2CC[C@]2(C)[C@@H](O)CC[C@@H]12` [DHT, dihydrotestosterone], the “pSer2 pol II binding to the promoter of PSA (KLK3)” value with PSA (KLK3) promoter was “significantly increased”. The “AR binding at the IL-8 promoter (in silico ChIP-Seq analysis, GSE83860)” value in the assay with IL-8 (CXCL8) promoter [5] (DHT 100 nM, FIG. 1g top) is “found AR binding at the IL-8 promoter”. In addition, the “IL-8 expression (qRT-PCR)” value in the assay on IL-8 [6] is on record as “did not affect IL-8 expression”. In addition, in the assay on IL-8 (CXCL8) promoter [7] (FIG. 1h), the “androgen dependent AR binding at the IL-8 promoter (ChIP-qRT-PCR)” value is “verified by ChIP-qRT-PCR”. Further, the “binding of pol II, pSer2 pol II and H3K4me3 to the IL-8 locus” value in the assay with IL-8 (CXCL8) promoter [7] (FIG. 1h left) is on record as “substantially reduced”.
